Data as given in ChEMBL document CHEMBL5303573, “Mapping human microbiome drug metabolism by gut bacteria and their genes” (Nature, 2019).

What was measured:
[1] = The drug is tested on Salmonella typhimurium strain: LT2 for biotransformation. The drug concentrations were measured before and after a 12-h incubation by liquid-chromatography-coupled mass spectrometry (LC–MS); conditions: salmonella enterica subsp. enterica, 2 µM
[2] = clostridioides difficile, 12 h, 2 µM
Description: The drug is tested on Clostridium difficile strain: 120 for biotransformation. The drug concentrations were measured before and after a 12-h incubation by liquid-chromatography-coupled mass spectrometry (LC–MS)

Lipase = biological target: T1, Lipase (Bacteroides thetaiotaomicron, UniProt Q8A3J3); assay: The drug is tested on Bacteroides thetaiotaomicron strain: VPI-5482 for biotransformation. The drug concentrations were measured before and after a 12-h incubation by liquid-chromatography-coupled mass spectrometry (LC–MS); type: ADME; set-up: dose 2 uM; conditions: 2 µM
T1 sequence (Q8A3J3 whole entry): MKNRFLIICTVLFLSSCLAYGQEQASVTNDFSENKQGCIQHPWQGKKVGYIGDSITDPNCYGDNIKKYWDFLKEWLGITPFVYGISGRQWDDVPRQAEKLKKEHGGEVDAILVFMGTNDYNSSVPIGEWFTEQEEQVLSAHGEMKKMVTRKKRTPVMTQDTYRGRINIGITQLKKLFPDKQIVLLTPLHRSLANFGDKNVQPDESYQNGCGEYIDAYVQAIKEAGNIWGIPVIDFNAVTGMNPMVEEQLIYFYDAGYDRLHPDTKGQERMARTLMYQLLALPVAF

GDSL-like protein = biological target: T2, GDSL-like protein (Collinsella aerofaciens, UniProt A4E8S4); assay: The drug is tested on Collinsella aerofaciens strain: ATCC25986 for biotransformation. The drug concentrations were measured before and after a 12-h incubation by liquid-chromatography-coupled mass spectrometry (LC–MS); type: ADME; set-up: dose 2 uM; conditions: 2 µM
T2 sequence (A4E8S4 whole entry): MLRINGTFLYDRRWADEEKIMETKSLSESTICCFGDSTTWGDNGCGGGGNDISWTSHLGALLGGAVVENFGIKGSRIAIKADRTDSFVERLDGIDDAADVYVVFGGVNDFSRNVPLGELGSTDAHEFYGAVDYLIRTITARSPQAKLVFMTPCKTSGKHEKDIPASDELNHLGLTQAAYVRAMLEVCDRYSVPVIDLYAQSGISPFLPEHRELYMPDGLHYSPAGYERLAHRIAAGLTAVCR

[3] = The drug is tested on Eubacterium biforme strain: DSM3989 for biotransformation. The drug concentrations were measured before and after a 12-h incubation by liquid-chromatography-coupled mass spectrometry (LC–MS); conditions: holdemanella biformis, 2 µM

Row | Bacterial Biotransformation [1] | Bacterial Biotransformation [2] | Bacterial Biotransformation (Lipase) | Bacterial Biotransformation (GDSL-like protein) | Bacterial Biotransformation [3] | Compound
1 | Compound NOT metabolized | Compound NOT metabolized | – | – | – | CCCC(=O)Nc1ccc(OCC(O)CNC(C)C)c(C(C)=O)c1 (stereo not drawn) [ACEBUTOLOL]
2 | Compound NOT metabolized | – | – | – | – | C=CCc1ccccc1OCC(O)CNC(C)C (stereo not drawn) [ALPRENOLOL]
3 | Compound NOT metabolized | Compound NOT metabolized | – | – | – | CC(C)NCC(O)COc1ccc(CC(N)=O)cc1 (stereo not drawn) [ATENOLOL]
4 | – | Compound NOT metabolized | – | – | – | CC(C)NCC(O)COc1ccc(CCOCC2CC2)cc1 (stereo not drawn) [BETAXOLOL]
5 | Compound metabolized | – | Compound metabolized | Compound metabolized | – | CC(=O)Oc1ccc(C(c2ccc(OC(C)=O)cc2)c2ccccn2)cc1 [BISACODYL]
6 | – | Compound NOT metabolized | – | – | – | COc1ccccc1OCCNCC(O)COc1cccc2[nH]c3ccccc3c12 (stereo not drawn) [CARVEDILOL]
7 | Compound metabolized | – | – | – | Compound metabolized | O=C(O)COCCN1CCN(C(c2ccccc2)c2ccc(Cl)cc2)CC1 (stereo not drawn) [CETIRIZINE]
8 | Compound NOT metabolized | Compound NOT metabolized | – | – | Compound NOT metabolized | Clc1cccc(Cl)c1N=C1NCCN1 [CLONIDINE]
9 | – | – | – | – | Compound NOT metabolized | CN(C)CCC=C1c2ccccc2C=Cc2ccccc21 [CYCLOBENZAPRINE]
10 | – | – | Compound NOT metabolized | Compound NOT metabolized | – | C#C[C@]1(O)CC[C@H]2[C@@H]3CCC4=Cc5oncc5C[C@]4(C)[C@H]3CC[C@@]21C [DANAZOL]
11 | – | – | Compound metabolized | Compound metabolized | – | CC(=O)Nc1ccc(OC(C)=O)cc1 [DIACETAMATE]
12 | – | – | Compound NOT metabolized | Compound NOT metabolized | – | CCN(CC)C(=O)/C(C#N)=C/c1cc(O)c(O)c([N+](=O)[O-])c1 [ENTACAPONE]
13 | – | Compound metabolized | – | – | Compound NOT metabolized | c1ccc([C@H]2CN3CCSC3=N2)cc1 [LEVAMISOLE]
14 | – | – | – | Compound NOT metabolized | – | CCOC(=O)C1=C(C)NC(C)=C(C(=O)OC)C1c1cccc([N+](=O)[O-])c1 (stereo not drawn) [NITRENDIPINE]
15 | – | – | Compound NOT metabolized | Compound NOT metabolized | – | COc1ccnc(C[S+]([O-])c2nc3ccc(OC(F)F)cc3[nH]2)c1OC (stereo not drawn) [PANTOPRAZOLE]
16 | – | – | Compound NOT metabolized | Compound NOT metabolized | – | Nc1ccc(/N=N/c2ccccc2)c(N)n1 [PHENAZOPYRIDINE]
17 | – | – | Compound metabolized | Compound metabolized | – | CC(=O)SCC(Cc1ccccc1)C(=O)NCC(=O)OCc1ccccc1 (stereo not drawn) [RACECADOTRIL]
18 | – | Compound NOT metabolized | – | – | – | CCOc1cc(CC(=O)N[C@@H](CC(C)C)c2ccccc2N2CCCCC2)ccc1C(=O)O [REPAGLINIDE]
19 | – | – | Compound NOT metabolized | Compound NOT metabolized | – | CC(=O)OCC(=O)NCCCOc1cccc(CN2CCCCC2)c1 [ROXATIDINE ACETATE]
20 | – | – | Compound NOT metabolized | – | – | O=C(O)c1cc(/N=N/c2ccc(S(=O)(=O)Nc3ccccn3)cc2)ccc1O [SULFASALAZINE]
21 | – | – | Compound NOT metabolized | Compound NOT metabolized | – | CCS(=O)(=O)CCn1c([N+](=O)[O-])cnc1C [TINIDAZOLE]

Row | Compound | Bacterial Biotransformation [1] | Bacterial Biotransformation [2] | Bacterial Biotransformation (Lipase) | Bacterial Biotransformation (GDSL-like protein) | Bacterial Biotransformation [3]
22 | C[C@@H]1CC[C@H]2[C@@H](C)C(=O)O[C@@H]3O[C@@]4(C)CC[C@@H]1[C@]32OO4 [ARTEMISININ] | – | Compound metabolized | Compound NOT metabolized | Compound NOT metabolized | –
23 | CN/C(=N/CCSCc1nc[nH]c1C)NC#N [CIMETIDINE] | Compound NOT metabolized | Compound NOT metabolized | – | – | –
24 | COC(=O)[C@H](c1ccccc1Cl)N1CCc2sccc2C1.O=S(=O)(O)O [CLOPIDOGREL BISULFATE] | Compound NOT metabolized | – | – | – | Compound NOT metabolized
25 | CN1CCN(C2=Nc3cc(Cl)ccc3Nc3ccccc32)CC1 [CLOZAPINE] | Compound NOT metabolized | – | – | – | Compound NOT metabolized
26 | O=P1(N(CCCl)CCCl)NCCCO1 (stereo not drawn) [CYCLOPHOSPHAMIDE ANHYDROUS] | Compound NOT metabolized | – | – | – | Compound metabolized
